The first data set deals with AMPA receptor. The data set is described as follows: Binding of 3H-AMPA to rat cerebral membrane material. Particulars: compared with 1-(ethoxycarbonylmethyl)-7-(3-formyl-1-pyrrolyl)-6-nitroquinoxaline-2,3(1H,4H)-dione. The method, then:
The pharmacological activity of the compounds I was investigated on isolated membrane material from rat cerebra. For this purpose, the membrane material was treated in the presence of the compounds according to the invention with the radiolabeled substance ^3H-2-amino-3-hydroxy-5-methyl-4-isoxazolepropionic acid (^3H-AMPA), [^3H]-glycine or [^3H]-kainate which bind to specific receptors (AMPA, NMDA or kainate receptors). The radioactivity of the treated membranes was then measured by scintillation counting. It was possible to determine from the bound radioactivity the amounts of bound ^3H-AMPA, [^3H]-glycine or [^3H]-kainate, or in each case the displaced amounts of these radiolabeled substances. […]
To prepare the membrane material, freshly removed rat cerebra were homogenized together with 15 times the volume of a buffer solution A composed of 30 mM tris(hydroxymethyl)methylamine hydrochloride (TRIS-HCl) and 0.5 mM ethylenediaminetetraacetic acid (EDTA), pH 7.4, using an Ultra-Turrax^R. The suspension was centrifuged at 48000 g for 20 min. […] After measurement of the radioactivity of the bound ^3H-AMPA in the membrane material by scintillation counting, the KI was determined by regression analysis of the displacement plots.
As for `CCOC(=O)Cn1c(=O)c(=O)[nH]c2cc([N+](=O)[O-])c(-n3ccc(C(=O)O)c3)cc21` [Example 2, 7-(3-Carboxy-1-pyrrolyl)-1-(ethoxycarbonylmethyl)-6-nitroquin-oxaline-2,3(1H,4H)-dione], the “activity in 3H-AMPA binding relative to the closely related aldehyde (Example 80 in EP 572 852)” value is reported as “distinctly more active”.

Still in this data set, the particulars now being: isolated membrane material from rat cerebra, 3H-AMPA, incubated on ice for 60 min; read-out: kI (dissociation constant, displacement of 3H-AMPA).
Usually Ki stands for a dissociation constant, usually derived from enzyme kinetics or from competition with a known ligand. Consider `CCOC(=O)Cn1c(=O)c(=O)[nH]c2cc([N+](=O)[O-])c(-n3ccc(C(=O)O)c3)cc21` [Example 2, 7-(3-Carboxy-1-pyrrolyl)-1-(ethoxycarbonylmethyl)-6-nitroquin-oxaline-2,3(1H,4H)-dione], for which the inhibition constant Ki was below 10 µM.

Test system in a further data set: not given
Experiment: not given
Conditions: not given
Usually melting point stands for the temperature of the solid-liquid transition. Consider `CCOC(=O)Cn1c(=O)c(=O)[nH]c2cc([N+](=O)[O-])c(-n3ccc(C(=O)NCc4ccc([N+](=O)[O-])cc4)c3)cc21`, for which the melting point was above 300 °C. `CCOC(=O)Cn1c(=O)c(=O)[nH]c2ccc3ccc(-n4ccc(C(=O)O)c4)cc3c21` [Example 3, 9-(3-Carboxy-1-pyrrolyl)-1-(ethoxycarbonylmethyl)benzo[f]-quinoxaline-2,3(1H,4H)-dione] showed a melting point of 292 to 295 °C. `O=C(O)Cn1c(=O)c(=O)[nH]c2cc([N+](=O)[O-])c(-n3ccc(C(=O)NCc4ccncc4)c3)cc21` [Example 22, 1-Carboxymethyl-6-nitro-7-(3-(4-pyridinylmethylcarbamoyl)-1-pyrrolyl)quinoxaline-2,3(1H,4H)-dione]: the melting point is above 300 °C. As to `O=C(O)Cn1c(=O)c(=O)[nH]c2cc([N+](=O)[O-])c(-n3ccc(C(=O)NCCCc4ccccc4)c3)cc21` [Example 21, 1-Carboxymethyl-6-nitro-7-(3-(3-phenylpropylcarbamoyl)-1-pyrrolyl)quinoxaline-2,3(1H,4H)-dione], the melting point was 224 to 227 °C (dec.).

`CCOC(=O)Cn1c(=O)c(=O)[nH]c2cc([N+](=O)[O-])c(-n3ccc(C(=O)NCc4ccncc4)c3)cc21` [Example 11, 1-Ethoxycarbonylmethyl-6-nitro-7-(3-(4-pyridinylmethylcarbamoyl)-1-pyrrolyl)quinoxaline-2,3(1H,4H)-dione] showed a melting point above 300 °C. With `O=C(O)Cn1c(=O)c(=O)[nH]c2ccc3c(-n4ccc(C(=O)O)c4)cccc3c21` [Example 15, 1-Carboxymethyl-7-(3-carboxy-1-pyrrolyl)benzo[f]quinoxaline-2,3(1H, 4H)-dione], the melting point is above 300 °C. For `CCOC(=O)Cn1c(=O)c(=O)[nH]c2cc([N+](=O)[O-])c(-n3ccc(C(=O)NCc4ccccc4)c3)cc21` [Example 8, 7-(3-Benzylcarbamoyl-1-pyrrolyl)-1-ethoxycarbonylmethyl-6-nitro-quinoxaline-2,3(1H,4H)-dione], the melting point is 223 °C (dec.). For the compound `O=C(O)Cn1c(=O)c(=O)[nH]c2cc([N+](=O)[O-])c(-n3ccc(C(=O)NCc4ccc([N+](=O)[O-])cc4)c3)cc21`, the melting point was > 210 °C (dec.). Still for that read-out and setting: next, `O=C(O)Cn1c(=O)c(=O)[nH]c2cc([N+](=O)[O-])c(-n3ccc(C(=O)N4CCN(CCc5ccccc5)CC4)c3)cc21` [Example 20, 1-Carboxymethyl-6-nitro-7-(3-(4-(2-phenylethyl)-1-piperazinyl-carbonyl)-1-pyrrolyl)quinoxaline-2,3(1H, 4H)-dione]: > 250 °C (dec.).

For the origin of these results see US6407109B1, “Pyrrolyl tetrahydroquinoxalin diones, their production and use in the treatment of diseases” (Abbott Laboratories, priority 1995, dated 2002).
